Laboratory results: patent US20260297136A1, “PEPTIDES WITH LIPOLYTIC, ANTI-LIPOGENIC, ANTIFIBROTIC AND ANTI-INFLAMMATORY ACTIVITY” (FUNDACIÓ HOSPITAL UNIVERSITARI VALL D'HEBRON - INSTITUT DE …, priority 2023, published 2026)

Columns and labels:
[1] = tested on: human mature adipocytes; test: Lipolysis in human mature adipocytes (glycerol production), Example 2; type: cell-based; conditions: 16 h
Experimental: FIG. 7. Mature human subcutaneous adipocytes were treated with vehicle (DMSO), 3 μM of Isoproterenol or 10 μM of GP4, GP8 or GP9 for 16 h. Glycerol concentration was assessed using a Lipolysis Assay Kit (Tebu-bio). Lipolysis induction was calculated with respect to the control cells treated with DMSO.
(§1) Human preadipocytes and cell culture reagents were from purchased from Tebu-Bio (Tebu-bio, Barcelona, Spain) and differentiation protocol was done following the manufacturer's instructions. Human adipocytes were maintained in a humidified incubator with 5% CO2 at 37° C. (Sex hormone-binding globulin overexpression protects against high-fat diet-induced obesity in transgenic male mice. Saez-Lopez C, Villena J A, Simo R, Selva D M. J Nutr Biochem. 2020 November; 85:108480. doi: 10.1016/j.jnutbio.2020.108480).
Lipolysis assays were performed using a Lipolysis Kit (Tebu-Bio) following the manufacturer's instructions as previously described.

[2] = tested on: human mature adipocytes; test: Lipolysis in human mature adipocytes (glycerol production), Example 3; type: cell-based; conditions: Homo sapiens, Adipocyte; 1 μM, 16 h, with respect to controls; read-out: increase of glycerol concentration (lipolysis positive control)
Experimental: FIG. 4 Mature human subcutaneous adipocytes were treated with vehicle (DMSO), 1 μM of Isoproterenol, Semaglutide (10 nM) or GP6 (25, 50 or 100 μg/ml) for 16 h. Glycerol concentration was assessed using a Lipolysis Assay Kit (Tebu-bio).
as §1
Lipolysis assays were performed using a Lipolysis Kit (Tebu-Bio) following the manufacturer's instructions as previously described by Saez-Lopez and collaborators (Sex hormone-binding globulin overexpression protects against high-fat diet-induced obesity in transgenic male mice. Saez-Lopez C, Villena J A, Simo R, Selva D M. J Nutr Biochem. 2020 November; 85:108480. doi: 10.1016/j.jnutbio.2020.108480.)

[3] = tested on: HepG2 cells; test: Hepatic lipogenesis gene expression (ACC, FAS, ACLY mRNA by RTPCR) in HepG2 cells, Example 2; type: cell-based, human; conditions: 10 μM, 24 h, relative to 18S
Experimental: FIG. 5 Human hepatoblastoma cell line HepG2 was treated with vehicle (DMSO) or 10 μM of GP4, GP7, GP8 or GP9 for 24 h. RNA was extracted and mRNA levels of Acetyl-CoA Carboxylase (ACC), Fatty Acid Synthase (FAS) and ATP-Citrate Lyase (ACLY) relative to 18S were measured by RTPCR.
(§2) Cell culture reagents were from Life Technologies Inc (Invitrogen SA, Barcelona, Spain). HepG2 hepatoblastoma cells (cat. no. HB-8065; ATCC, LGC Standards SLU, Barcelona, Spain) were maintained in Dulbecco's modified Eagle medium (DMEM) supplemented with 10% fetal bovine serum and antibiotics. HepG2 cells were treated with vehicle or 10 μM of GP4, GP7, GP8 and GP9 for 24 h. LX-2 human hepatic stellate cells (SCC064) were maintained in DMEM supplemented with 2% fetal bovine serum and antibiotics. For experiments, LX-2 were cultured for 24 h in DMEM 0.2% FBS and treated for 24 h with vehicle or TGFβ1 (20 ng/ml) in the absence or presence of 8 μM of GP4, GP7, GP8 and GP9 for 24 h. At the end of the experiment's cells were harvested for gene expression analysis.
Total RNA was extracted from HepG2 and LX-2 cells using TRIzol reagent (Invitrogen SA). Reverse transcription was performed at 42° C. for 50 minutes using […] of total RNA, 200 U of Superscript II, and an oligo-dT primer and reagents provided by Invitrogen. An aliquot of the reverse transcription product was amplified in a […] reaction using SYBRGreen (Invitrogen SA) with appropriate oligonucleotide primer pairs corresponding to human ACC, FAS, ACLY, Col1A1 and 18S (shown in table 7). Results were analyzed using the 7000 Sequence Detection System program (Applied Biosystems, Thermo Fisher Scientific, Barcelona, Spain) (Sex Hormone-Binding Globulin Reduction in Metabolic Disorders May Play a Role in NAFLD Development.Saez-Lopez C, Barbosa-Desongles A, Hernandez C, Dyer R A, Innis S M, Simo R, Selva D M. Endocrinology. 2017 Mar. 1; 158(3):545-559. doi: 10.1210/en.2016-1668).

[4] = tested on: LX-2 cells; test: Fibrosis in LX-2 cells: Col1A1 mRNA induced by TGFβ1, Example 2; type: cell-based, human; conditions: 8 μM, 24 h
Experimental: FIG. 6. Human hepatic stellate cell line LX-2 was treated with vehicle (DMSO) or TGFβ1 (10 ng/ml) in the absence or presence of 8 μM of GP8 or GP9 for 24 h. RNA was extracted and mRNA levels of collagen 1A1 (Col1A1) relative to 18S were measured by RTPCR.
as §2, with “For experiments, LX-2 were cultured for 24 h in DMEM 0.2% FBS and treated for 24 h with vehicle or TGFβ1 (20 ng/ml) in the absence or presence of 8 μM of GP4, GP7, GP8 and GP9 for 24 h. At the end of the experiment's cells were harvested for gene expression analysis.” left out
Total RNA was extracted from HepG2 and LX-2 cells using TRIzol reagent (Invitrogen SA). […] Results were analyzed using the 7000 Sequence Detection System program (Applied Biosystems, Thermo Fisher Scientific, Barcelona, Spain) (Sex Hormone-Binding Globulin Reduction in Metabolic Disorders May Play a Role in NAFLD Development.Saez-Lopez C, Barbosa-Desongles A, Hernandez C, Dyer R A, Innis S M, Simo R, Selva D M. Endocrinology. 2017 Mar. 1; 158(3):545-559. doi: 10.1210/en.2016-1668).

[5] = tested on: HepG2 cells; test: Hepatic lipogenic key enzymes in HepG2 cells in the presence of 30 mM fructose (2 h), Example 7; type: cell-based, human
Experimental: FIG. 34. Effects of different peptides and SHBG in reducing hepatic lipogenic key enzymes in the presence of 30 mM fructose. Each bar within each group represents mRNA levels of a key hepatic lipogenic enzyme, from left to right: Acetyl-CoA Carboxylase (ACC), ATP Citrate Lyase (ACLY) and Fatty Acid Synthase (FAS), and a key transcription factor regulating several lipogenic enzymes such as PPARγ (PPARγ).
Cell culture reagents were from Life Technologies Inc (Invitrogen SA, Barcelona, Spain). HepG2 hepatoblastoma cells (cat. no. HB-8065; ATCC, LGC Standards SLU, Barcelona, Spain) were maintained in Dulbecco's modified Eagle medium (DMEM) supplemented with 10% fetal bovine serum and antibiotics.
• HepG2 cells were cultured for 5 day in the absence or presence of 30 mM fructose. Cells cultured in 30 mM fructose were daily treated with vehicle, Telmisartan, Semaglutide or EDL6D. • HepG2 cells were cultured for 24 h in the absence or presence of GP6 (40 μg/ml), GP10 (40 μg/ml), GP11 (40 μg/ml), GP12 (40 μg/ml), GP13 (40 μg/ml) or SHBG (20 nM). • HepG2 cells were cultured in the absence or presence of 30 mM fructose and treated for 2 h with vehicle or GP4 (40 μg/ml), GP6 (40 μg/ml), GP7 (40 μg/ml), GP8 (40 μg/ml), GP9 (40 μg/ml), GP10 (40 μg/ml), GP11 (40 μg/ml), GP12 (40 μg/ml), GP13 (40 μg/ml) or SHBG (20 nM).
Total RNA was extracted from HepG2 and LX-2 cells using TRIzol reagent (Invitrogen SA). Reverse transcription was performed at 42° C. for 50 minutes using […] of total RNA, 200 U of Superscript II, and an oligo-dT primer and reagents provided by Invitrogen. An aliquot of the reverse transcription product was amplified in a […] reaction using SYBRGreen (Invitrogen SA) with appropriate oligonucleotide primer pairs corresponding to human SHBG, ACC, FAS, ACLY, PPARG, and 18S and mouse ACC, FAS, ACLY, PPARG, Col1A1 and 18S. Results were analyzed using the 7000 Sequence Detection System program (Applied Biosystems, Thermo Fisher Scientific, Barcelona, Spain) (Shez-Lopez et al Endocrinology 2017).

[6] = EP 3003351 A1; cited from earlier work

Molecule: CC(C)NCC(O)c1ccc(O)c(O)c1 (stereo not shown) [isoproterenol, 4-[1-hydroxy-2-(propan-2-ylamino)ethyl]benzene-1,2-diol, reference compound]
- activation at 3 µM ([1]; Homo sapiens, Adipocyte, 3 μM, with respect to control, read-out: increase of glycerol concentration (lipolysis positive control)): 370%
- activation at 1 µM [2]: 400%

Molecule: CC[C@@H](C)[C@@H](NC(=O)[C@H](NC(=O)CNC(=O)[C@@H](CCC(=O)O)NC(=O)[C@H]1CCCN1C(=O)[C@@H](CC(=O)O)NC(=O)[C@@H](Cc1c[nH]c2ccccc12)NC(=O)[C@H](N)[C@H](C)O)C(C)C)C(=O)N[C@H](Cc1ccccc1)C(=O)N[C@H](Cc1ccc(O)cc1)C(=O)NCC(=O)N[C@H](CC(=O)O)C(=O)N[C@@H](C(=O)N[C@H](CC(N)=O)C(=O)N1CCC[C@@H]1C(=O)N[C@H](CCCCN)C(=O)N[C@H](CC(=O)O)C(=O)N[C@H](CC(=O)O)C(=O)N[C@H](Cc1c[nH]c2ccccc12)C(=O)N[C@H](Cc1ccccc1)C(=O)N[C@H](CCSC)C(=O)N[C@H](CC(C)C)C(=O)NCC(=O)N[C@H](CC(C)C)C(=O)N[C@H](CCCNC(=N)N)C(=O)N[C@H](CC(=O)O)C(=O)NCC(=O)N[C@H](CCCNC(=N)N)C(=O)N1CCC[C@@H]1C(=O)N[C@H](CCC(=O)O)C(=O)O)[C@H](C)O [GP9]
- ATP-Citrate Lyase (ACLY) mRNA levels [3]: did not alter
- Acetyl-CoA Carboxylase (ACC) mRNA levels [3]: did not alter
- Fatty Acid Synthase (FAS) mRNA levels [3]: reduced
- reduction of Col1A1 mRNA levels induced by TGFβ1 [4]: 21%
- increase of glycerol production (lipolysis) ([1]; 10 μM, with respect to control cells): 170%
- fructose-induced expression of ACC ([5]; 40 μg/ml): able to reduce the expression of ACC and ACLY more effectively than SHBG
- fructose-induced expression of ACLY ([5]; 40 μg/ml): able to reduce the expression of ACC and ACLY more effectively than SHBG
- fructose-induced expression of FAS ([5]; 40 μg/ml): had no effect on FAS
- fructose-induced expression of PPARγ ([5]; 40 μg/ml): increased PPARγ expression

B1: SHBG: sex hormone-binding globulin (SHBG) protein (protein, UniProt P04278 30-402, looked up)
Sex hormone-binding globulin: LRPVLPTQSAHDPPAVHLSNGPGQEPIAVMTFDLTKITKTSSSFEVRTWDPEGVIFYGDTNPKDDWFMLGLRDGRPEIQLHNHWAQLTVGAGPRLDDGRWHQVEVKMEGDSVLLEVDGEEVLRLRQVSGPLTSKRHPIMRIALGGLLFPASNLRLPLVPALDGCLRRDSWLDKQAEISASAPTSLRSCDVESNPGIFLPPGTQAEFNLRDIPQPHAEPWAFSLDLGLKQAAGSGHLLALGTPENPSWLSLHLQDQKVVLSSGSGPGLDLPLVLGLPLQLKLSMSRVVLSQGSKMKALALPPLGLAPLLNLWAKPQGRLFLGALPGEDSSTSFCLNGLWAQGQRLDVDQALNRSHEIWTHSCPQSPGNGTDASH
- fructose-induced expression of ACC ([5]; SHBG 20 nM): able to reduce
- fructose-induced expression of ACLY ([5]; SHBG 20 nM): able to reduce
- fructose-induced expression of FAS ([5]; SHBG 20 nM): able to reduce
- fructose-induced expression of PPARγ ([5]; SHBG 20 nM): able to reduce
- lipolytic and anti-lipogenic activity [6]: has lipolytic and anti-lipogenic activity
